ChEMBL document CHEMBL1201862, “PubChem BioAssay data set” (2004)
Active and inactive are the calls of the source.

Columns and labels:
[1] = target: Glucose-6-phosphate 1-dehydrogenase (Homo sapiens, UniProt P11413); assay: human G6PD enzyme inhibitors, dose response, selectivity assay for P. falciparum G6PD inhibitor project, biochemical, fluorescence (AID 504792); format: functional
[2] = target: T1, Aminopeptidase N (Plasmodium falciparum FcB1/Columbia, UniProt O96935); assay: P. falciparum M1AAP inhibitors, biochemical, fluorogenic H-Leu-NHMec substrate, 1536-well (AID 1445); design: species or system Plasmodium falciparum 3D7, 3D7
T1 sequence (O96935 whole entry): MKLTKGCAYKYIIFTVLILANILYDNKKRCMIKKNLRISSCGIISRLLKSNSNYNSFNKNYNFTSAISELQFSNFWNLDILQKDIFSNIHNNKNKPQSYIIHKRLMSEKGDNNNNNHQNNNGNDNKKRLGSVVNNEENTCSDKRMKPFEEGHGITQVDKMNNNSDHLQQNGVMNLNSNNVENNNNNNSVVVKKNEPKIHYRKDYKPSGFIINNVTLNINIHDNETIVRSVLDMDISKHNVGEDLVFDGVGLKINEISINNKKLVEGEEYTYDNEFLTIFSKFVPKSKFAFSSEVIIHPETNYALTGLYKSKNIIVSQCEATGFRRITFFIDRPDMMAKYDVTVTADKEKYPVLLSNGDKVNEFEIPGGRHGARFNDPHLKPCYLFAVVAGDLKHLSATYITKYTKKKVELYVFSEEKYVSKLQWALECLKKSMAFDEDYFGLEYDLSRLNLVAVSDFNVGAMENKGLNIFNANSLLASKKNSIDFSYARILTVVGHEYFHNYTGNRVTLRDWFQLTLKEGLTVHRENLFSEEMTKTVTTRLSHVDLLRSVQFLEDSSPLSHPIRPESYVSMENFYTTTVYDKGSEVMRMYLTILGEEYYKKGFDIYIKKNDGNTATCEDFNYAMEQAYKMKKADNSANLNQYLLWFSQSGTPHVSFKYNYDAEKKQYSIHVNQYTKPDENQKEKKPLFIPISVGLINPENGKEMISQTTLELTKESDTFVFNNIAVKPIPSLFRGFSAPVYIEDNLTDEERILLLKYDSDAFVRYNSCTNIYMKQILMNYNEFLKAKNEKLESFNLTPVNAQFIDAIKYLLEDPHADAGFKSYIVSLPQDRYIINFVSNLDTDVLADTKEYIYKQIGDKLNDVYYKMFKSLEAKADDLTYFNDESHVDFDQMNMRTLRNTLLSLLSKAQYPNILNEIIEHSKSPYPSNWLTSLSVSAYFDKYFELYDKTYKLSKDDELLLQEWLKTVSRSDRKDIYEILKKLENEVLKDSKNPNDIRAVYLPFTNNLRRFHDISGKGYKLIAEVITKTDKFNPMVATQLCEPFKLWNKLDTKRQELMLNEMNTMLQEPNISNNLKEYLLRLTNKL

[3] = target: T2, Histone-lysine N-methyltransferase NSD2 (Homo sapiens, UniProt O96028); format: biochemical
T2 sequence (O96028 whole entry): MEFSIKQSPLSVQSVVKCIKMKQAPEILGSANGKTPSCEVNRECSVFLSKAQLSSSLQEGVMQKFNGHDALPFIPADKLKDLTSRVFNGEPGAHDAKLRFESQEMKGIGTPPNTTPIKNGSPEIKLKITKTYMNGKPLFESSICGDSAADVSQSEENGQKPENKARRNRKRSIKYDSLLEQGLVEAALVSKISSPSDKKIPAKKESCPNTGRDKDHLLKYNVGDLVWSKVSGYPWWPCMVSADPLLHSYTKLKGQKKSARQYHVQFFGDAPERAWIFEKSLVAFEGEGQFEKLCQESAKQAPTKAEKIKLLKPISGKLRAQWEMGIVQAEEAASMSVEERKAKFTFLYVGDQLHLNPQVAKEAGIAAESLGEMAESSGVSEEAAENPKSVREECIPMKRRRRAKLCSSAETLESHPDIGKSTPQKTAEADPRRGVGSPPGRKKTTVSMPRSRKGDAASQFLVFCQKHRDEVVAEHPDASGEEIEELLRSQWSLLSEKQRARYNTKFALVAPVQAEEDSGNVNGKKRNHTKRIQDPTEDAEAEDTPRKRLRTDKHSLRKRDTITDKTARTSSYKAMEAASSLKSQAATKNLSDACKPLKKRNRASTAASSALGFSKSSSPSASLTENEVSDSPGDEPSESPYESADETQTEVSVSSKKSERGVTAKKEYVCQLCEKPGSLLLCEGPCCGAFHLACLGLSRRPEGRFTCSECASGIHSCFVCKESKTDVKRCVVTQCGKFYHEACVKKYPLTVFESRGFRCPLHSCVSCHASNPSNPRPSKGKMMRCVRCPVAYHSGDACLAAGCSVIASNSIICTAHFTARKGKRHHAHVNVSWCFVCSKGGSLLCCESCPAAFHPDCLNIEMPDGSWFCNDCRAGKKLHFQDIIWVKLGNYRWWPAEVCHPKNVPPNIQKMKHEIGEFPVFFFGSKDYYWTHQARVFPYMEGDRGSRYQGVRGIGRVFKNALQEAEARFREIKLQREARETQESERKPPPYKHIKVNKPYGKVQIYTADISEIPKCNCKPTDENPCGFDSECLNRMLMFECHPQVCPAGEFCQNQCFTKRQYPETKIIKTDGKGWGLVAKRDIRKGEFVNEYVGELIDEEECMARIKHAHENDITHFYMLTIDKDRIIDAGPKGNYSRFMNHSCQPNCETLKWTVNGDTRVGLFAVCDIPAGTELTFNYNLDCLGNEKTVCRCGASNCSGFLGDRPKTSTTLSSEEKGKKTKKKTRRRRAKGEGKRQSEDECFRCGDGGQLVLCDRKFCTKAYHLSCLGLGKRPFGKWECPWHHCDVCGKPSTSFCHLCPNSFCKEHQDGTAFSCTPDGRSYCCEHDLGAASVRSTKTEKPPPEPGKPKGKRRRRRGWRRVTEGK

[4] = target: T3, DNA repair protein RAD52 homolog (Homo sapiens, UniProt P43351); format: functional, biochemical
T3 sequence (P43351 whole entry): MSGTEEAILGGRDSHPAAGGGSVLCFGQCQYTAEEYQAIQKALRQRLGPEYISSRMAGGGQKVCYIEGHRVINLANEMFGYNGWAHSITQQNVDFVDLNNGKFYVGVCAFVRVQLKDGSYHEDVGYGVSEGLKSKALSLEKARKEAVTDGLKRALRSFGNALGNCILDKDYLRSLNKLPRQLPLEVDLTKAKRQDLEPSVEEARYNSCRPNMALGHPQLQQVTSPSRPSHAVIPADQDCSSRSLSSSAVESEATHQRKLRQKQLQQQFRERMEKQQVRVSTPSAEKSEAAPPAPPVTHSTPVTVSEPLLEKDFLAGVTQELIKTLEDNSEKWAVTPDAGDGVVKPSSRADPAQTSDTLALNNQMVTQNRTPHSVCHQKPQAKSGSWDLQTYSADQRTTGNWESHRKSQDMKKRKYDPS

[5] = target: Nonstructural protein 1 (Influenza A virus, UniProt Q194T2); format: functional, Influenza A virus (A/California/07/2009(H1N1))
[6] = THP-1 cell cytotoxicity, dose response, cytotoxicity control for non-replicating M. tuberculosis project (AID 489025); format: functional
[7] = cells; format: functional
[8] = NIH-3T3 fibroblast cytotoxicity, dose response, cytotoxicity control, cell-based, fluorescence, Alamar Blue, secondary assay (AID 2327); format: functional;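 further: NIH-3T3 mouse fibroblasts cultured with fluconazole at 8 µg/mL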
[9] = C. albicans growth with fluconazole, confirmation, fluorescence, retest (AID 2467); format: functional, cell-based
[10] = A cytotoxicity screen of small molecule inhibitors of the PhoP region in Salmonella typhi identified in the primary screen. [Related pubchem assays: 1850, 1864, 1985 ]; format: functional
[11] = target: Glyceraldehyde-3-phosphate dehydrogenase (Homo sapiens, UniProt P04406)
[12] = target: T4, Ubiquitin-conjugating enzyme E2 N (Homo sapiens, UniProt P61088); format: functional;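 further: Dose-response confirmation in a TR-FRET assay detecting UBC13-driven polyubiquitin chain formation, inhibition measured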
T4 sequence (P61088 whole entry): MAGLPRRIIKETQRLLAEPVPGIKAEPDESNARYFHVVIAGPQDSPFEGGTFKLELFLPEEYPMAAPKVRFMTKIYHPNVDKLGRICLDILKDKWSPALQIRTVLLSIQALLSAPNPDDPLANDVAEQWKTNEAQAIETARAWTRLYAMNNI

Glucose-6-phosphate 1-dehydrogenase, sequence (P11413 whole entry): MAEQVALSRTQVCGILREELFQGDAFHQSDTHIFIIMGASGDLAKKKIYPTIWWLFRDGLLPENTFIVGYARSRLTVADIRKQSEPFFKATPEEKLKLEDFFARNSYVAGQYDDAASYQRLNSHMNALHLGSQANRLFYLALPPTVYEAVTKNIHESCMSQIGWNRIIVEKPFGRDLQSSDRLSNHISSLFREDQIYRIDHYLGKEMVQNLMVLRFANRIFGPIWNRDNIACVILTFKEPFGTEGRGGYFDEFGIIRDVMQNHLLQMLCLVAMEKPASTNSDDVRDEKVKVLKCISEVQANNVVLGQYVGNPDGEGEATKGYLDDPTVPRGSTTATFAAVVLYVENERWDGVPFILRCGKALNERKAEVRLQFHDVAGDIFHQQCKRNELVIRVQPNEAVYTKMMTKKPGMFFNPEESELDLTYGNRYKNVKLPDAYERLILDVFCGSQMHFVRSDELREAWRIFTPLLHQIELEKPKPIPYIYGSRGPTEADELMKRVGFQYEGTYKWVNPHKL
Nonstructural protein 1, sequence (Q194T2 whole entry): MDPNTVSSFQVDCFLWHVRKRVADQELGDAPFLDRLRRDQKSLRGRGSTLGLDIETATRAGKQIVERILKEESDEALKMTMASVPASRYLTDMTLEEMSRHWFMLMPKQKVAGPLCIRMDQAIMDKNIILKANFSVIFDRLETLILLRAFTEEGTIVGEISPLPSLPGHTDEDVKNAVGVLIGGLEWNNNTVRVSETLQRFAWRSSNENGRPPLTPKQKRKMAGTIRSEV
Glyceraldehyde-3-phosphate dehydrogenase, sequence (P04406 whole entry): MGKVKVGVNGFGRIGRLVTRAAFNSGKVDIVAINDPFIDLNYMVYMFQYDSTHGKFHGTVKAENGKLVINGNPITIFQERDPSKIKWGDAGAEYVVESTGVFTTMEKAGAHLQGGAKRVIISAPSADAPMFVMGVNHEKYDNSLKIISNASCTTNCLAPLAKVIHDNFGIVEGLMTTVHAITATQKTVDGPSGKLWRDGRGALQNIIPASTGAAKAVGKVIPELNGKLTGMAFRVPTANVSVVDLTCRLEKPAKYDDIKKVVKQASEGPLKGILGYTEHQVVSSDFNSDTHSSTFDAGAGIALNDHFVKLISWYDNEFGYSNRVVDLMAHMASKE

With `COc1cc(NCc2ccccc2)c2ncn(Cc3ccccc3)c2c1` the IC50 [1] was > 80 µM (inactive).

For `O=C1c2cccc3cccc(c23)C(=O)N1CCCc1nnc(S)n1-c1ccccc1`, the IC50 [2] was 17.9 µM (active).

For `CNCCCc1ccccc1`, the AC50 [3] was > 20 µM (inactive).

For `CCOc1ccc2[nH]c3c(c2c1)CNCC3`, the AC50 [4] was 26.8 µM (active).

In the case of `CCCN(CCC)CCNC(=O)c1cc2c(-c3ccccc3F)nn(C)c2s1`, the AC50 [3] was > 20 µM (inactive).

In the case of `COc1ccccc1NC(=O)CSc1ccc(-c2ccccn2)nn1`, the IC50 [5] was 7.99 µM (active).

In the case of `CCc1ccc(Cc2cnc(NC(=O)C3=NCCN3)s2)cc1`, the CC50 [6] was > 40 µM (active) and the IC50 [7] was 9.25 µM (active).

With `COCc1cc(CN2CCN(C)CC2)c(O)c2ncccc12` the EC50 [8] was > 160 µM (inactive), the EC50 [9] was > 38 µM (not active) and the IC50 [5] was 4.15 µM (active).

With `O=C(CCCOc1ccccc1)OCn1nnc2ccccc2c1=O` the IC50 [7] was 3.55 µM (active).

In the case of `Cc1cccc(C(=O)Nc2nnc(S(=O)(=O)N3CCOCC3)s2)c1`, the IC50 [1] was 54.4 µM (inactive).

In the case of `COc1ccccc1NC(=O)Cn1nc(-c2ccncc2)nc1SCC(=O)NC1CCCC1`, the EC50 [10] was > 50 µM (active).

For `Cc1ccsc1C(C(=O)NC1CCCCC1)N(C(=O)c1csnn1)C1CC1` (configuration not stated), the IC50 [2] was 87.7 µM (active).

With `CC1CCCCN1S(=O)(=O)c1ccc(S(=O)(=O)NCCc2ccncc2)cc1` (configuration not stated) the EC50 [10] was > 50 µM (active).

With `COc1cccc(NC(=O)CSc2nn3c(=O)c(C)nnc3s2)c1` the IC50 [5] was 11.3 µM (active).

For `CC(C)Cc1nc(N2CCOCC2)c(C#N)c2c1COC(C)(C)C2`, the EC50 [10] was > 50 µM (active).

For `O=C(CN1CCN(S(=O)(=O)c2ccc(Cl)cc2)CC1)c1ccc(O)c(O)c1`, the AC50 [3] was 4.91 µM (active).

For `O=C1C(Cl)=C(N2CCN(Cc3ccc4c(c3)OCO4)CC2)C(=O)N1c1cccc(C(F)(F)F)c1`, the IC50 [11] was > 50 µM (inconclusive).

With `COc1cccc(-c2nnc(SCC(=O)O)[nH]2)c1` the IC50 [11] was > 100 µM (not active).

With `CC1(C)Cc2c(sc3nc4n(-c5ccccc5)c(=O)c(CCC(=O)O)nn4c(=O)c23)CO1` the IC50 [1] was 34.1 µM (inactive).

For `CN(C)CCCN(C(=O)c1ccc(C(=O)c2ccccc2)cc1)c1nc2cc3c(cc2s1)OCO3`, the IC50 [12] was > 20 µM (inactive) and the AC50 [4] was 7.81 µM (active).

With `CCOC(=O)COn1c(=O)c(-c2cccs2)[n+]([O-])c2ccccc21` the EC50 [10] was > 50 µM (active).

With `CCc1ccc(NC(=O)Nc2ccncc2)cc1` the EC50 [10] was > 50 µM (active).

In the case of `COc1ccc(OC)c(CCNC(=O)CS(=O)(=O)Cc2nc(-c3ccccc3C)oc2C)c1`, the EC50 [10] was > 50 µM (active).

For `COc1ccc2c(c1)CC1c3c(cc4c(c3-2)OCO4)CC[N+]1(C)[O-]` (configuration not stated), the AC50 [4] was 3.38 µM (active).

With `CCCCN(CC)Cc1c(O)ccc2c3c(c(=O)oc12)CCC3` the IC50 [2] was 57.7 µM (active).

In the case of `CCN1CCCC1CNC(=O)c1ccc2c(c1)NC(=O)/C(=C\c1ccccc1F)S2` (configuration not stated), the IC50 [1] was > 80 µM (inactive) and the AC50 [4] was 6.33 µM (active).

With `C#CCOCCOCCOCCNc1nc(N2CCN(C(=O)Cn3cc(CCCN=C(N)N)nn3)CC2)nc(N2CCN(C(=O)[C@H](CCCCN)n3cc(CCCC)nn3)CC2)n1` the AC50 [4] was 34 µM (active).

In the case of `O=C(OCc1nnc(-c2ccccc2)o1)c1ccc(Br)o1`, the IC50 [7] was 20.1 µM (active).

With `C/C(Cn1nnc([N+](=O)[O-])n1)=N\NC(=O)c1ccc(O)cc1` the IC50 [1] was > 80 µM (inactive).

For `N#CC1C(=O)Nc2cccnc21` (configuration not stated), the AC50 [3] was > 20 µM (inactive).

For `O=C(N/N=C/c1ccccc1C(=O)O)c1cc(-c2ccc3c4c(cccc24)CC3)[nH]n1`, the IC50 [2] was 85.2 µM (active).

For `CC(=O)O[C@H]1C[C@@H]2CC[C@@H]3[C@H](CC[C@@]4(C)[C@H]3C[C@H]([N+]3(C)CCCCC3)[C@@H]4OC(C)=O)[C@@]2(C)C[C@@H]1[N+]1(C)CCCCC1` [PANCURONIUM BROMIDE], the AC50 [4] was 8.3 µM (active).
